Results taken from patent US20110288174A1, “Monohydrate of 4-(phenyl)ethyl]-amino}methyl)benzoic acid” (BAYER SCHERING PHARMA AKTIENGESELLSCHAFT, priority 2008, published 2011).

Test: Stability of the solid forms (thermodynamic and storage stability)
Assay type: physicochemical
Conditions: for thermodynamic stability of the crystal form: solid form of the compound of the formula (I)

O=C(O)CCCCN(CCc1ccccc1OCc1ccc(CCc2ccccc2)cc1)Cc1ccc(C(=O)O)cc1 [modification IV, 4-({(4-Carboxybutyl)[2-(2-{[4-(2-phenylethyl)benzyl]oxy}phenyl)ethyl]amino}methyl)benzoic acid]
thermodynamic stability of the crystal form: metastable

O=C(O)CCCCN(CCc1ccccc1OCc1ccc(CCc2ccccc2)cc1)Cc1ccc(C(=O)O)cc1 [monohydrate A, monohydrate of 4-({(4-carboxybutyl)[2-(2-{[4-(2-phenylethyl)benzyl]oxy}phenyl)ethyl]amino}methyl)benzoic acid in form A]
storage stability (even after processing to aqueous suspensions): storage-stable
thermodynamic stability of the crystal form: thermodynamically stable
